Experiments:
sciatic nerve crush = assay: Functional recovery in the rat sciatic nerve crush model (semi-quantitative behavioral score); format: in vivo; conditions: scale 0-4
Protocol: Nine 6-week-old male Sprague-Dawley rats were anesthetized with 2% halothane, the right sciatic nerve was exposed, and the nerve was crushed twice (for a total of 60 s using a No.7 Dumont jeweler's forceps) at the level of the hip. The crush site was marked by tying a sterile 9-0 suture through the epineurial sheath.
Compound (Ia) was dissolved in vehicle comprising 30% dimethylsulfoxide (DMSO):70% saline. Three axotomized rats received subcutaneous daily injections either Compound (Ia) (1 or 5 mg/kg) or an equivalent volume of vehicle (30% DMSO in saline) (5ml/kg)
Animals were examined daily until the day of perfusion (18 days). The following semi-quantitative scale was used to evaluate the functional recovery of the animals:
0: paralysis with the foot turned-out upon walking and the toes curved;
1: ability to right the foot and move the toes;
2: ability to constantly walk on the foot;
For the behavioral analysis, mean values for recovery of function were compared using one-way ANOVA followed by the Newman-Keuls multiple comparisons test for comparison of individual values. For the morphometric analysis, mean values for the number of axons were compared using one-way ANOVA followed by the Newman Keuls multiple comparisons test for comparison of individual values.

FKBP12 = FKBP12 (Homo sapiens, UniProt P62942); assay: Binding assay to FKBP12; conditions: in vitro
Chain of FKBP12 (P62942 whole entry, species assumed): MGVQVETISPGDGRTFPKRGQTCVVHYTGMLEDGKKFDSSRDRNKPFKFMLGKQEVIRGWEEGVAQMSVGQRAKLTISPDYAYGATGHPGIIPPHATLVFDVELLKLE
Protocol: The binding assay was performed according to a similar manner to that of Tamura, K., et al (Biochemical arid Biophysical Research Communications, Vol. 202, No. 1, 437-499, 1994).

[1] = system: Mixed lymphocyte reaction (MLR); assay: Mixed lymphocyte reaction (MLR); format: cell-based; conditions: for IC50: Lymphocyte, in vitro
Protocol: MLR test was performed according to a similar manner to that of U.S. Pat. No. 4,929,611

[2] = system: Embryonic hippocampal neurons; assay: Neurite (axon) lengths in primary embryonic hippocampal neuron cultures; format: cell-based, rat; conditions: 10 nM, primary hippocampal cell cultures in rats at 72 hr, mean
Protocol: Embryonic hippocampal neurons were obtained from rat pups on embryonic day 18.5 (“El8.5”), according to Banker and Cowan (Brain Research, 1977, 126: 397425). Briefly, the hippocampal regions were removed, minced, and incubated in 100 I.U. papain at 37° C. for 45 min, and the cells were resuspended in complete neuronal medium: minimal essential medium without L-glutamine (GIBCO, Grand Island, NY), 1.5 ml/100 ml medium of high glucose minimal essential medium (GIBCO), 0.1 ml/100 ml medium of serum extender (Hito +Tm; Collaborative Research Inc, Lexington, Mass.), glutamine (GIBCO), 5% fetal calf serum (GIBCO). Cells were seeded onto coverslips (500 cells/coverslip) coated with poly-L-lysine. The coverslips were inverted onto dishes that had been precoated with a monolayer of cortical astrocytes. Hippocampal neurons (identified by their characteristic polarity and dendrites) were examined daily and randomly photographed (9-12 frames/coverslip) at 72 h. Axon (defined as the longest process) lengths were measured on photographic prints using a Houston Instrument HI-PAD digitizing tablet connected to an IBM XT computer with appropriate software (Bioquant IV, R & M Biometrics, Nashville, TN); only processes more than three-fold of the cell body length were measured. Data from identically treated coverslips (three or four per group) were not different and therefore were combined.

[3] = system: SH-SY5Y human neuroblastoma cells; assay: Neurite lengths in NGF-treated SH-SY5Y neuroblastoma cells; format: cell-based; conditions: NGF 10 ng/ml alone; SH-SY5Y cells at 168 hr; mean
Protocol: SH-SY5Y human neuroblastoma cells were maintained in DMEM medium (GIBCO) supplemented with 10% fetal calf serum (SIGMA), 50 I.U./ml of penicillin, and 50μg/ml streptomycin (GIBCO) at 37° C. in 7% CO2. Cells were plated in six-well plates at 15,000 cells/well and treated with 0.4 μM aphidicolin (SIGMA). […] Medium was changed at 96 h and replaced with fresh medium for an additional 72 h (total time, 168 h). Duplicate wells were run in all experiments and the data were averaged for each treatment group. Analysis of neurite lengths in SH-SY5Y neuroblastoma cells:
For analysis of process length, cells (20 fields per well) were randomly photographed at 168 h. Neurite lengths were measured on photographic prints using a Houston Instrument HI-PAD digitizing tablet connected to an IBM XT computer with appropriate software (Bioquant IV, R & M Biometrics, Nashville, Tenn.); only those processes greater than two-fold of the cell body length were measured. Data from identically treated wells were not different and were therefore combined.

| IC50 (FKBP12) [nM] | IC50 [1] [nM] | Compound | Functional Score (sciatic nerve crush; 1 mg/kg s.c. daily, Day 15) | Functional Score (sciatic nerve crush; 1 mg/kg s.c. daily, Day 16) | Functional Score (sciatic nerve crush; 1 mg/kg s.c. daily, Day 17) | Functional Score (sciatic nerve crush; 5 mg/kg s.c. daily, Day 15) | Functional Score (sciatic nerve crush; 5 mg/kg s.c. daily, Day 16) | Functional Score (sciatic nerve crush; 5 mg/kg s.c. daily, Day 17) | immunosuppressive activity ([1]; conclusion in words from MLR result) | Neurite Lengths [2] [μm] | Neurite Lengths ([2]; listed as tacrolimus) | Neurite Lengths [3] [μm] |
| --- | --- | --- | --- | --- | --- | --- | --- | --- | --- | --- | --- | --- |
| < 5 | > 100 | CO[C@H]1C[C@@H](C)C/C(C)=C/C(CC(C)=O)C(=O)C[C@H](O)[C@@H](C)[C@@H](/C(C)=C/[C@@H]2CC[C@@H](O)[C@H](OC)C2)OC(=O)[C@@H]2CCCCN2C(=O)C(=O)[C@]2(O)OC1[C@@H](OC)C[C@H]2C (stereo partly shown) [Compound (Ia)] | 2.58 ± 0.17 | 2.83 ± 0.17 | 3.08 ± 0.22 | 3.17 ± 0.08 | 3.50 ± 0.00 | 3.50 ± 0.00 | does not have immunosuppressive activity |  |  |  |
|  | < 2 | C=CC[C@@H]1/C=C(\C)C[C@H](C)C[C@H](OC)[C@H]2O[C@@](O)(C(=O)C(=O)N3CCCC[C@H]3C(=O)O[C@H](/C(C)=C/[C@@H]3CC[C@@H](O)[C@H](OC)C3)[C@H](C)[C@@H](O)CC1=O)[C@H](C)C[C@@H]2OC [Tacrolimus, tacrolimus] |  |  |  |  |  |  |  | 423.4 ± 19.50 | no significant difference |  |
|  |  | NGF: nerve growth factor, used at 10 ng/ml to induce process outgrowth |  |  |  |  |  |  |  |  |  | 198.8 ± 8.991 |
